Measurements taken from patent US11173102B1, “Methods and compositions for removing color from color-treated hair” (L'Oreal, priority 2020, dated 2021).
Where “and” joins values, the source holds several entries; their conditions need not be identical. Identical values can stand only once.

What was measured:
[1] = Log Pow (octanol/water partition coefficient) of direct dyes; details: octanol/water partition coefficient of the dye
[2] = Color removal (ΔE) from HC blue 15 dyed, multiple-shampooed platinum bleached hair, with co-surfactants and cyclic compounds; details: 30 min 40° C.
[3] = Controlled color removal of two-tone colored hair over one, three and six shampoo washes; details: 10% TBuMA Cl added to commercial shampoo containing about 9% SLES, up to six washes
Text: The swatches were then washed with either the shampoo alone (control) or shampoo with TBuMA Cl and evaluated after one, three and six washes. Without addition of TBuMA Cl, the indigo color shifts to green as the number of shampoos increased. This is because Basic Red 51, a cationic direct dye, is washed out faster from hair by washing with shampoo than the HC Blue 15.

[4] = Color removal (ΔE) from hair swatches dyed with HC Blue 15, soaked 30 minutes at 40° C., shampooed once
Method: Unless otherwise indicated, hair swatches were all treated using the same protocol. Specifically, 2 g dyed hair swatches were soaked in 80 g treatment solutions or samples in water for 30 minutes at 40° C., then the treated hair swatches were then shampooed once and blow-dried for evaluation.

[5] = Color removal (ΔE) from hair swatches dyed with hydroxyanthraquinoneaminopropyl methyl morpholinium methosulfate, 23° C.; details: 6% SLES in water; 30 min 23° C.

| Molecule | Log Pow [1] | other results |
| --- | --- | --- |
| CNc1cc(OCC(O)CO)ccc1[N+](=O)[O-] (stereo not drawn) [2-NITRO-5-GLYCERYL METHYLANILINE] | 0.89 | – |
| O=[N+]([O-])c1cc(O)ccc1NCCO [3-NITRO-P-HYDROXYETHYLAMINOPHENOL] | 0.21 | – |
| Nc1ccc(O)cc1[N+](=O)[O-] [4-AMINO-3-NITROPHENOL] | 1.19 | – |
| Nc1c(N=Nc2ccc([N+](=O)[O-])cc2)c(S(=O)(=O)[O-])cc2cc(S(=O)(=O)[O-])c(N=Nc3ccccc3)c(O)c12.[Na+].[Na+] [ACID BLACK 1] | 1.2 | – |
| CCN(Cc1cccc(S(=O)(=O)[O-])c1)c1ccc(C(=C2C=CC(=[N+](CC)Cc3cccc(S(=O)(=O)[O-])c3)C=C2)c2ccccc2S(=O)(=O)[O-])cc1.[Na+].[Na+] [ACID BLUE 9] | −0.32 | – |
| Cc1ccc(Nc2ccc(Nc3ccc(C)cc3S(=O)(=O)[O-])c3c2C(=O)c2ccccc2C3=O)c(S(=O)(=O)[O-])c1.[Na+].[Na+] [ACID GREEN 25] | 5.71 | – |
| O=S(=O)([O-])c1ccc(N=Nc2c(O)ccc3ccccc23)cc1.[Na+] [ACID ORANGE 7] | 1.4 | – |
| O=S(=O)(O)c1cc(S(=O)(=O)O)c2c(/N=N\c3ccc(S(=O)(=O)O)c4ccccc34)c(O)ccc2c1 [ACID RED18] | 1.63 | – |
| Nc1cc(S(=O)(=O)[O-])cc2cc(S(=O)(=O)[O-])c(N=Nc3ccccc3)c(O)c12.[Na+].[Na+] [ACID RED 33] | 0.5 | – |
| CCN(CC)c1ccc2c(-c3ccc(S(=O)(=O)[O-])cc3S(=O)(=O)[O-])c3ccc(=[N+](CC)CC)cc-3oc2c1.[Na+] [ACID RED 52] | 1.3 | – |
| O=C([O-])c1c(Cl)c(Cl)c(Cl)c(Cl)c1-c1c2cc(Br)c(=O)c(Br)c-2oc2c(Br)c([O-])c(Br)cc12.[Na+].[Na+] [ACID RED 92] | 3 | – |
| Cc1ccc(Nc2ccc(O)c3c2C(=O)c2ccccc2C3=O)c(S(=O)(=O)[O-])c1.[Na+] [ACID VIOLET 43] | 3.1 | – |
| O=C([O-])C1=NN(c2ccc(S(=O)(=O)[O-])cc2)C(=O)C1N=Nc1ccc(S(=O)(=O)[O-])cc1.[Na+].[Na+].[Na+] (stereo not drawn) [ACID YELLOW 23] | −10.17 | – |
| C[N+](C)(C)c1cccc(N=C2C=C(N)c3c(O)c(Br)cc(N)c3C2=O)c1.[Cl-] [BASIC BLUE 99] | 1.88 | – |
| C[N+](C)(C)c1ccc2ccc(O)c(N=Nc3ccc(N)c([N+](=O)[O-])c3)c2c1.[Cl-] [BASIC BROWN 17] | −0.15 | – |
| Cn1cc[n+](C)c1N=Nc1ccc(N)cc1.[Cl-] [BASIC ORANGE 31] | −2.31 | – |
| CN(C)c1ccc(N=Nc2n(C)cc[n+]2C)cc1.[Cl-] [BASIC RED 51] | −1.97 | Log Pow ([1]; listed as Basic Red 51): around −1.97 |
| CC1=NN(c2ccccc2)C(=O)C1N=Nc1cccc([N+](C)(C)C)c1.[Cl-] (stereo not drawn) [BASIC YELLOW 57] | 0.06 | – |

| Molecule | Log Pow [1] | other results |
| --- | --- | --- |
| CN(N=Cc1cc[n+](C)cc1)c1ccccc1 [BASIC YELLOW 87] | −1.69 | – |
| OCc1ccccc1 [Benzyl Alcohol, benzyl alcohol] | – | ΔE ([2]; 10% Benzyl Alcohol, hair pre-shampooed 6×): 9.4 |
| Nc1ccc(N)c2c1C(=O)c1ccccc1C2=O [DISPERSE VIOLET 1] | 3 | – |
| CCO [EtOH, ethanol] | – | ΔE ([2]; 16% EtOH, hair pre-shampooed 4×): 1.77; ΔE ([2]; 16% EtOH, hair pre-shampooed 6×): 1.8 |
| O=[N+]([O-])c1cc(N(CCO)CCO)ccc1NCCO [HC BLUE NO. 2] | −0.32 | – |
| O=C1c2ccccc2C(=O)c2c(NCC(O)CO)ccc(NCC(O)CO)c21 (stereo not drawn) [HC BLUE NO. 14] | 2.09 | – |
| CC1=CC(=C(c2cc(C)c(N)c(C)c2)c2c(Cl)cccc2Cl)C=C(C)C1=N.O=P(O)(O)O [HC BLUE NO. 15] | 3.47 | Log Pow ([1]; listed as HC Blue 15): around 3.47; Log Pow ([1]; listed as HC blue 15): around 3.47 |
| NCCNc1ccc(OCCO)cc1[N+](=O)[O-] [HC ORANGE NO. 2] | 0.13 | – |
| Nc1ccc(NCCO)c([N+](=O)[O-])c1 [HC RED NO.3] | −0.42 | – |
| Cc1cc(N)c([N+](=O)[O-])cc1NCCO [HC VIOLET NO 1] | 0.67 | – |
| O=[N+]([O-])c1cc(N(CCO)CCO)ccc1NCCCO [HC VIOLET NO 2] | 0.608 | – |
| COc1ccc([N+](=O)[O-])c(NCCN)c1.Cl [HC YELLOW NO.9] | 1.3 | – |
| Cc1cc(N(CCO)CCO)ccc1N=Nc1ccc(N)cc1 [HC YELLOW NO. 7] | 2.59 | – |
| CCCC[N+](C)(CCCC)CCCC.[Cl-] [TBuMA Cl, tributylmethyl ammonium chloride] | – | leaching of Basic Red 51 ([3]; versus shampoo alone): deterred or inhibited; removal of HC Blue 15 ([3]; versus shampoo alone): accelerated; indigo color tone during shampooing [3]: maintained; ΔE ([2]; 10% TBuMA Cl, hair pre-shampooed 4×): 3.63; ΔE ([4]; 10 wt.% organic salt, 0 wt. % SLES, 30 min 40° C.): 1.8 |
| COS(=O)(=O)[O-].C[N+]1(CCCNc2ccc(O)c3c2C(=O)c2ccccc2C3=O)CCOCC1 [hydroxyanthraquinoneaminopropyl methyl morpholinium methosulfate] | 0.89 | Log Pow ([1]; listed as hydroxyanthraquinoneaminopropyl methyl morpholinium methosulfate): around 0.89 |
| ACID YELLOW 3 | −1.05 | – |
| HC RED NO. 7 | 0.13 | – |
| sodium laureth sulfate [SLES] | – | ΔE ([2]; 6% SLES, hair pre-shampooed 4×): 19.3; ΔE ([2]; 6% SLES, hair pre-shampooed 6×): 15.01; ΔE [5]: 18.2; ΔE ([4]; 0 wt.% organic salt, 3 wt. % SLES, 30 min 40° C.): 21.08 and 21.1; ΔE ([4]; 0 wt.% organic salt, 6 wt. % SLES, 30 min 40° C.): 21.81 and 21.4; ΔE ([4]; 0 wt.% organic salt, 12 wt. % SLES, 30 min 40° C.): 21.84; ΔE ([4]; SLES alone, over the concentrations tested (3-12 wt. %)): 21-22 |
